# Data as given in patent publication US8507724B2 (priority 2008, dated 2013).
# “And” between values parts separate entries of the source, which are not always exact repeats. Equal values may be shown once. Read-outs that look alike come from different tables or passages of the source.
# Experiment: in vivo
# Format: in vivo
# Conditions: rat
# Description: […] Whole blood samples were taken from a lateral tail vein for plasma separation at time points 0 min, 30 min, 1 h, 2 h and 4 h after p.o. dosing; and 0 min, 15 min, 30 min, 1 h, and 2 h after i.v. dosing, while the terminal samples at time point 6 h after dosing (p.o and Lv.) were taken by cardiac puncture. All time points were taken from a single rat, and all experiments were carried out in triplicate.
# The samples were thawn at room temperature and prepared by protein precipitation with ratio 1:2 of plasma and acetonitrile and were centrifuged 10 minutes at 16 100×g (Eppendorf 5415D, Eppendorf AG, Hamburg, Germany) before injection to UPLCIMSMS system. The standard samples were prepared similarly, after spiking blank plasma samples to 0.5, 2, 5, 10, 20, 50, 200, 500, 1000 and 2000 ng/ml of the analyte compounds.
# The pharmacokinetic parameters for study compounds were calculated by WinNonlin Pro (Pharsight Corp, CA) using standard noncompartmental methods. The volume of distribution (Vd) was based on the terminal phase. The elimination phase half-life (t1/2) was calculated by least-squares regression analysis of the terminal linear part of the log concentration-time curve. The area under the plasma concentration-time curve (AUC) was determined by use of the linear trapezoidal rule up to the last measurable concentration and thereafter by extrapolation of the terminal elimination phase to infinity. The area under the plasma concentration-time curve without terminal extrapolation is reported as AUC 0-6 h. The mean residence time (MRT) representing the average amount of time a compound remains in a compartment or system was calculated extrapolating the drug concentration profile to infinity. The maximum plasma concentration (cmax) and the time to cmax (tmax) were derived directly from the plasma concentration data. The tentative oral bioavailability (F) was calculated by dividing the AUC after p.o. administration by the AUC after i.v. administration taking into account the differences in dose, i.e. F=AUC(p.o.)/Dose(p.o.)/AUC(i.v)/[…], and reported as percentages (%).
# A Waters Acquity chromatographic system (Waters Corp., Milford, Mass., USA) with autosampler, vacuum degasser and column oven was used. The analytical column used for all compounds was a Waters BEH ShieldRP18, (2.1×50 mm, 1.7 μm, Waters Corp, Milford, Mass., USA) together with an on-line filter. The eluents were 0.1% acetic acid (A, pH 3.2) and acetonitrile (B). A linear gradient elution from 5% B to 35% B in 0-2 minutes, from 35% B to 85% B in 2.0-3.0 min was employed, followed by 1 min isocratic elution with […] and column equilibration. The flow rate was 0.5 ml/min and the column oven temperature was 35° C. LC/MS/MS/data was acquired with a Micromass Quattro Premier triple quadrupole mass spectrometer equipped with a LockSpray electrospray ionization source. A negative ion mode ionisation was used. The multiple reaction monitoring (MRM) mode of detection was used. The mass spectrometer and UPLC system were operated under Micromass MassLynx 4.1 software. Complete LC/MS/MS parameters are presented in Appendix I.
# Detection/quantitation limits between 2 ng/ml and 10 ng/ml in plasma were obtained for each compound. Calibration curves for quantification were generated by fitting the ratio of the external standard peak areas as a function of the concentration, excluding the point of origin and using 1/x weighting and linear or quadratic fitting. The ranges up to 2000 ng/ml were fitted for calibration curves. […] The overall precisions 12.0-17.0% were calculated from the standard samples (two injection/concentration), using Snedecor equation S=(Σd^2/2n)^0.5, in which S=precision, d is the difference between duplicates expressed as % of the mean value, and N is the number of standard concentration. The concentrations of each study compound in the samples are shown in the Appendices IV-VI.
# [1] = 2 mg/kg i.v., individual animals, 2 mg/kg
# [2] = 20 mg/kg p.o., individual animals, 20 mg/kg
# [3] = in vivo, iv, 2 mg/kg, 2 mg/kg i.v., individual animals, read-out: t1/2
# [4] = in vivo, iv, 2 mg/kg, i.v. 2 mg/kg, mean n=3, read-out: t1/2
smiles,measurement,setting,value
"CC(C)c1cc(-c2ccc(Cl)c(F)c2)cc(C(C)C)c1O [p-(3-F,4-Cl—Ph)-propofol, Para-(3-Fluoro,4-chlorophenyl)-propofol]",CL/F,[1],24.9 mL/min/kg and 30.4 mL/min/kg and 32.5 mL/min/kg
same,t1/2,[1],1.53 h and 1.65 h
same,CL/F,[2],153 mL/min/kg and 434 mL/min/kg and 105 mL/min/kg
same,t1/2,[2],7.8 h and 18.5 h and 13.1 h
same,CL/F,"i.v. 2 mg/kg, mean n=3",29.3 mL/min/kg
same,bioavailability,in vivo,~18%
same,clearance (in words),"in vivo, iv",intermediate
same,half life (in words),"in vivo, iv",intermediate
same,ADC 0-6 h,"in vivo, iv, 2 mg/kg",64.1 µg·min/mL
same,tmax,"in vivo, iv, 2 mg/kg",0.25 h
same,half-life,[3],1.36 h
same,half-life,[4],1.52 h
same,concentration at 30 min,"in vivo, iv, 2 mg/kg, iv (2 mg/kg), 30 min, individual animals, read-out: concentration in plasma",444 ng/mL
same,concentration at 1 h,"in vivo, iv, 2 mg/kg, iv (2 mg/kg), 1 h, individual animals, read-out: concentration in plasma",316 ng/mL
same,concentration at 2 h,"in vivo, iv, 2 mg/kg, iv (2 mg/kg), 2 h, individual animals, read-out: concentration in plasma",90.3 ng/mL
same,concentration at 6 h,"in vivo, iv, 2 mg/kg, iv (2 mg/kg), 6 h, individual animals, read-out: concentration in plasma",24.1 ng/mL
same,ADC 0-6 h,"in vivo, po, 20 mg/kg",34.6 µg·min/mL
same,CL,"in vivo, po, 20 mg/kg",41.1 mL/min/kg
same,Tmax,"in vivo, po, 20 mg/kg",0.5 h
same,Vd,"in vivo, po, 20 mg/kg",54.4 L/kg
same,bioavailability,"in vivo, po, 20 mg/kg",17.8%
same,tmax,"in vivo, po, 20 mg/kg",0.5 h
same,Vd/F,"in vivo, po, 20 mg/kg, p.o. 20 mg/kg, mean n=3",306 L/kg
same,CL/F,"in vivo, po, 20 mg/kg, p.o. 20 mg/kg, mean n=3, read-out: CL/F",231 mL/min/kg
same,half-life,"in vivo, po, 20 mg/kg, p.o. 20 mg/kg, mean n=3, read-out: t1/2",13.2 h
same,concentration in plasma,"iv (2 mg/kg), 15 min, individual animals, listed as CK2-9, 2 mg/kg",1100 ng/mL and 689 ng/mL and 535 ng/mL
same,concentration in plasma,"iv (2 mg/kg), 30 min, individual animals, listed as CK2-9, 2 mg/kg",499 ng/mL and 513 ng/mL
same,concentration in plasma,"iv (2 mg/kg), 1 h, individual animals, listed as CK2-9, 2 mg/kg",329 ng/mL and 297 ng/mL
same,concentration in plasma,"iv (2 mg/kg), 2 h, individual animals, listed as CK2-9, 2 mg/kg",74.0 ng/mL and 81.3 ng/mL
same,concentration in plasma,"iv (2 mg/kg), 6 h, individual animals, listed as CK2-9, 2 mg/kg",44.0 ng/mL and 46.6 ng/mL
same,detection in plasma after oral (p.o.) administration,,observed in plasma
same,concentration in plasma,"po (20 mg/kg), 30 min, individual animals, listed as CK2-9, 20 mg/kg",172 ng/mL and 213 ng/mL and 63.0 ng/mL
same,concentration in plasma,"po (20 mg/kg), 1 h, individual animals, listed as CK2-9, 20 mg/kg",182 ng/mL and 26.6 ng/mL and 121 ng/mL
same,concentration in plasma,"po (20 mg/kg), 2 h, individual animals, listed as CK2-9, 20 mg/kg",134 ng/mL and 26.2 ng/mL and 168 ng/mL
same,concentration in plasma,"po (20 mg/kg), 4 h, individual animals, listed as CK2-9, 20 mg/kg",21.5 ng/mL and 97.6 ng/mL
same,concentration in plasma,"po (20 mg/kg), 6 h, individual animals, listed as CK2-9, 20 mg/kg",121 ng/mL and 22.9 ng/mL and 128 ng/mL
"CC(C)c1cc(-c2ccc(Cl)cc2)cc(C(C)C)c1O [4-(p-Cl—Ph)-propofol, 4-(para-Chlorophenyl)-propofol]",bioavailability,"plasma, po, 20 mg/kg p.o. vs 2 mg/kg i.v., read-out: F (%) tentative oral bioavailability",0%
same,tmax,"2 mg/kg i.v., individual animals",0.25 h
same,AUC,[1],36.3 µg·min/mL and 40.8 µg·min/mL and 68.8 µg·min/mL
same,CL/F,[1],55.1 mL/min/kg and 49.1 mL/min/kg and 29.1 mL/min/kg
same,MRT,[1],1.51 h and 0.782 h
same,cmax,[1],0.46 µg/mL and 0.78 µg/mL
same,t1/2,[1],1.54 h and 1.78 h
same,ADC 0-6 h,"i.v. 2 mg/kg, mean n=3",46.6 µg·min/mL
same,AUC,"i.v. 2 mg/kg, mean n=3",48.6 µg·min/mL
same,CL/F,"i.v. 2 mg/kg, mean n=3",44.4 mL/min/kg
same,clearance (in words),"i.v. dosing, compared to rat liver blood flow",in the range of hepatic blood flow
same,half-life,[3],1.52 h
same,half-life,[4],1.61 h
same,concentration in plasma,"iv (2 mg/kg), 15 min, individual animals, listed as CK2-3, 2 mg/kg",398 ng/mL and 456 ng/mL
same,concentration in plasma,"iv (2 mg/kg), 30 min, individual animals, listed as CK2-3, 2 mg/kg",123 ng/mL and 187 ng/mL and 307 ng/mL
same,concentration in plasma,"iv (2 mg/kg), 1 h, individual animals, listed as CK2-3, 2 mg/kg",149 ng/mL and 156 ng/mL
same,concentration in plasma,"iv (2 mg/kg), 2 h, individual animals, listed as CK2-3, 2 mg/kg",62.4 ng/mL and 74.2 ng/mL
same,concentration in plasma,"iv (2 mg/kg), 6 h, individual animals, listed as CK2-3, 2 mg/kg",14.6 ng/mL and 14.9 ng/mL
same,detection in plasma after oral (p.o.) administration,,detected in plasma only after i.v. administration
same,detection in plasma after oral (p.o.) administration,listed as CK-2-3,not detected
same,half-life,"plasma, iv, 2 mg/kg, i.v. administration, read-out: half life (converted)",~1.5 h
same,concentration at 15 min,"plasma, iv, 2 mg/kg, iv (2 mg/kg), 15 min, individual animals",784 ng/mL
same,concentration at 1 h,"plasma, iv, 2 mg/kg, iv (2 mg/kg), 1 h, individual animals",79.7 ng/mL
same,concentration at 2 h,"plasma, iv, 2 mg/kg, iv (2 mg/kg), 2 h, individual animals",63.9 ng/mL
same,concentration at 6 h,"plasma, iv, 2 mg/kg, iv (2 mg/kg), 6 h, individual animals",13.1 ng/mL
